Experimental data: PubChem BioAssay (NCI)
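Interpolation was linear, between the two tested concentrations surrounding the appropriate level; five concentrations were tested over 48 hours in 96-well plates. The concentration for full growth arrest is given as TGI.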

How the values were obtained:
Test in all cases: NCI anticancer screen, dose series, 48 h
OVCAR-4 ovarian = tested on: OVCAR-4 ovarian
786-0 renal = tested on: 786-0 renal
M19-MEL melanoma = tested on: M19-MEL melanoma
SR leukemia = tested on: SR leukemia
SNB-75 CNS = tested on: SNB-75 CNS
DLD-1 colon = tested on: DLD-1 colon
UACC-257 melanoma = tested on: UACC-257 melanoma
ACHN renal = tested on: ACHN renal
SN12C renal = tested on: SN12C renal
A498 renal = tested on: A498 renal
HCC-2998 colon = tested on: HCC-2998 colon
IGROV1 ovarian = tested on: IGROV1 ovarian
CCRF-CEM leukemia = tested on: CCRF-CEM leukemia
DMS 273 small cell lung = tested on: DMS 273 small cell lung
DMS 114 small cell lung = tested on: DMS 114 small cell lung
SK-MEL-28 melanoma = tested on: SK-MEL-28 melanoma
HCT-116 colon = tested on: HCT-116 colon
TK-10 renal = tested on: TK-10 renal
OVCAR-3 ovarian = tested on: OVCAR-3 ovarian
KM20L2 colon = tested on: KM20L2 colon
A549 NSCLC = tested on: A549 NSCLC
SNB-78 CNS = tested on: SNB-78 CNS
HOP-18 NSCLC = tested on: HOP-18 NSCLC
RXF 393 renal = tested on: RXF 393 renal
SK-OV-3 ovarian = tested on: SK-OV-3 ovarian
EKVX NSCLC = tested on: EKVX NSCLC
K-562 leukemia = tested on: K-562 leukemia
OVCAR-8 ovarian = tested on: OVCAR-8 ovarian
SF-268 CNS = tested on: SF-268 CNS
CAKI-1 renal = tested on: CAKI-1 renal
U251 CNS = tested on: U251 CNS
M14 melanoma = tested on: M14 melanoma
NCI-H226 lung = tested on: NCI-H226 lung
MOLT-4 leukemia = tested on: MOLT-4 leukemia
RPMI-8226 leukemia = tested on: RPMI-8226 leukemia
UO-31 renal = tested on: UO-31 renal
KM12 colon = tested on: KM12 colon
MALME-3M melanoma = tested on: MALME-3M melanoma
HOP-62 NSCLC = tested on: HOP-62 NSCLC
HCT-15 colon = tested on: HCT-15 colon
NCI-H460 lung = tested on: NCI-H460 lung
OVCAR-5 ovarian = tested on: OVCAR-5 ovarian
SF-539 CNS = tested on: SF-539 CNS
HOP-92 NSCLC = tested on: HOP-92 NSCLC
SW-620 colon = tested on: SW-620 colon
LXFL 529 NSCLC = tested on: LXFL 529 NSCLC
SK-MEL-2 melanoma = tested on: SK-MEL-2 melanoma
UACC-62 melanoma = tested on: UACC-62 melanoma
RXF-631 renal = tested on: RXF-631 renal
XF 498 CNS = tested on: XF 498 CNS
SF-295 CNS = tested on: SF-295 CNS
HT29 colon = tested on: HT29 colon
LOX IMVI melanoma = tested on: LOX IMVI melanoma
NCI-H23 lung = tested on: NCI-H23 lung
COLO 205 colon = tested on: COLO 205 colon
HL-60(TB) leukemia = tested on: HL-60(TB) leukemia
SK-MEL-5 melanoma = tested on: SK-MEL-5 melanoma

Measured: TGI

COC(=O)c1cc(-c2ccc(OC)c(OC)c2)oc1-c1ccc(OC)c(OC)c1
39.4 µM: COLO 205 colon
93.6 µM: SN12C renal
71.4 µM: HOP-92 NSCLC
95.5 µM: DMS 114 small cell lung
59.5 µM: A498 renal
96.2 µM: SF-539 CNS
72.7 µM: RXF 393 renal
not listed: SK-MEL-5 melanoma
> 100 µM: all other assays above

CCOC(=O)NC1C2CC(=O)C(O2)C1OCc1ccccc1 (stereo not drawn)
not listed: SR leukemia | HCT-116 colon | TK-10 renal | EKVX NSCLC | OVCAR-8 ovarian
> 100 µM: all other assays above
